Reference: patent US8673966B2, “ALDH-2 inhibitors in the treatment of addiction” (Gilead Sciences, Inc., priority 2011, dated 2014)
Where “and” joins values, the source holds several entries; their conditions need not be identical. Equal values may be shown once.

Tests used:
Type in all cases: biochemical
hMAO-B = hMAO-B (Homo sapiens (Human), UniProt P27338); test: MAO-B assay (luminogenic MAO substrate); settings: microsome contained MAO-B, 16 uM substrate, 20 min pre-incubation; unit inferred
Description: (§1) MAO assays included luminogenic MAO substrate, reaction buffers, Luciferin Detection and the reconstitution buffer with esterase. Standard MAO reaction mixtures included microsome contained MAO-A (2 ug) or MAO-B (10 ug), 160 uM substrate for MAO-A or 16 uM substrate for MAO-B, MAO-A buffer (100 mM Hepes buffer, pH 7.5, 5% glycerol) or MAO-B buffer (100 mM Hepes, pH 7.5, 5% glycerol, 10% dimethyl sulfoxide) in a final volume of 30 ul. After 20 minutes of pre-incubation of the enzyme with compounds, the reaction was initiated by adding enzyme substrate and the reaction was allowed to proceed for 60 minutes. Reconstituted Luciferin Detection Reagent (30 ul) was then added is added to simultaneously stop the MAO reaction and convert the methyl ester derivative to luciferin and produce light. The amount of light produced is directly proportional to the activity of MAO. The mixtures were further incubated for 20 minutes and activity of the enzyme was determined using Perkin-Elmer Envision Reader.
(§2) Note: IC50 refers to the concentration of a compound that inhibits a reaction by 50%. In the case of competitive inhibition, IC50=2Ki when the substrate is present at the Km concentration, as per the relationship: Ki=IC50/[1+(substrate concentration/Km)].

recombinant human ALDH2 = recombinant human ALDH2 (Homo sapiens (Human), UniProt P05091); test: ALDH2 assay (NADH formation); settings: 10 nM recombinant human ALDH2, 150 uM formaldehyde, 60 min pre-incubation; read-out: IC50 hALDH2
Description: Standard ALDH2 reaction mixtures contained 150 uM formaldehyde, 2.5 mM NAD^+, 10 mM MgCl2 and 10 nM recombinant human ALDH2 in 50 mM Hepes buffer, pH 7.4, 0.01% Tween 20 in a final volume of 50 ul using 384-well plates. After 60 min of pre-incubation of compound with ALDH2 and formaldehyde, the reaction was started by adding NAD+ and the reaction mixture was allowed to proceed for 90 minutes. Activity of the enzyme was determined by monitoring NADH formation using Perkin-Elmer Envision Reader with excitation and emission wavelengths set at 340 and 460 nm, respectively.
as §2

hMAO-A = hMAO-A (Homo sapiens (Human), UniProt P21397); test: MAO-A assay (luminogenic MAO substrate); settings: microsome contained MAO-A, 160 uM substrate, 20 min pre-incubation; unit inferred
Description: as §1, §2

hMAO-B, sequence (P27338 whole entry): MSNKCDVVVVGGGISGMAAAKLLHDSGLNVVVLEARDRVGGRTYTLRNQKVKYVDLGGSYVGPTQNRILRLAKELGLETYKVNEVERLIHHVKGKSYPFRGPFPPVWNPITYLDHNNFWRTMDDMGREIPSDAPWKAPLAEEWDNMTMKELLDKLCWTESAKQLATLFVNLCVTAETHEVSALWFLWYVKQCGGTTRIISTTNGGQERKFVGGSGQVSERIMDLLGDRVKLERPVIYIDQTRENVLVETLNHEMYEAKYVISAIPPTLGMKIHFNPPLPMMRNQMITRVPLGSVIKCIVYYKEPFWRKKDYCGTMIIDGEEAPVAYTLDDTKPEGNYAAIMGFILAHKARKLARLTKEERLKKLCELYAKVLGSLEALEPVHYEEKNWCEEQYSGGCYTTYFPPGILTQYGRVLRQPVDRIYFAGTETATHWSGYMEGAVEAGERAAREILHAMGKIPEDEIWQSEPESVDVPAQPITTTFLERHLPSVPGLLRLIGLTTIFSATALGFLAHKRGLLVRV
recombinant human ALDH2, sequence (P05091 18-517): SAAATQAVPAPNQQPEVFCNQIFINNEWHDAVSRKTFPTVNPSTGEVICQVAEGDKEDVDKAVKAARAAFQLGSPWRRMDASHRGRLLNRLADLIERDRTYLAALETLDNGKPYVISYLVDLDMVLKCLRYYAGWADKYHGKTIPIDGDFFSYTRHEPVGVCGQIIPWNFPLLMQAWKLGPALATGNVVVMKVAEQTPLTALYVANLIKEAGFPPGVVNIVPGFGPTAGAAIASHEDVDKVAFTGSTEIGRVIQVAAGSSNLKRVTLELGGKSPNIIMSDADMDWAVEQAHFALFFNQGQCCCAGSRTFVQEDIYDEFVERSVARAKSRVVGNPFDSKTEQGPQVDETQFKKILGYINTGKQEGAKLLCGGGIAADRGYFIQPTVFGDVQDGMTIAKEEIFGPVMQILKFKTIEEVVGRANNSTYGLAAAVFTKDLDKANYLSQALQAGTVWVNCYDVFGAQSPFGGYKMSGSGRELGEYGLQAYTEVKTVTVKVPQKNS
hMAO-A, sequence (P21397 whole entry): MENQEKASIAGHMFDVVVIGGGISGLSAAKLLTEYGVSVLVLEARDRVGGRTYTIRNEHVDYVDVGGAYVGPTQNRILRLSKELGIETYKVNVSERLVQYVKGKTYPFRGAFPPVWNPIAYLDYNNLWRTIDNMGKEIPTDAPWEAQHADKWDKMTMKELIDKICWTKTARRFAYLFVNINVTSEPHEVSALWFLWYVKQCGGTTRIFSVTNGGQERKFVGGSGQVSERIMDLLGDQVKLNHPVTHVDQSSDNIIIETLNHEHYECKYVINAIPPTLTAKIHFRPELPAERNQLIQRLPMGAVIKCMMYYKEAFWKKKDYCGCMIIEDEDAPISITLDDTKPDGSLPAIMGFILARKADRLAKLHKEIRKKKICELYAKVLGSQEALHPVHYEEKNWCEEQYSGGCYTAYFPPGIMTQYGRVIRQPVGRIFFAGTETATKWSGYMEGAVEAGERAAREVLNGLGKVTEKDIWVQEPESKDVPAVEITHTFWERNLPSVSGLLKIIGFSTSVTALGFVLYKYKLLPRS

| Structure (SMILES) | IC50 (hMAO-B) [nM] | IC50 (recombinant human ALDH2) | IC50 (hMAO-A) [nM] |
| --- | --- | --- | --- |
| CS(=O)(=O)Nc1ccc(-c2coc3cc(C#CC4CN(C(=O)C5CC5(F)F)C4)ccc3c2=O)cc1 (stereo not drawn) [N-(4-(7-((1-(2,2-difluorocyclopropane-carbonyl)azetidin-3-yl)ethynyl)-4-oxo-4H-chromen-3-yl)phenyl)methanesulfonamide] | > 130000 | 5 nM | > 130000 |
| CC(C)(O)C(=O)N1CC(C#Cc2ccc3c(=O)c(-c4ccc(NS(C)(=O)=O)cc4)coc3c2)C1 [N-(4-(7-((1-(2-hydroxy-2-methylpropanoyl)-azetidin-3-yl)ethynyl)-4-oxo-4H-chromen-3-yl)phenyl)methanesulfonamide] | > 130000 | 16 nM | > 130000 |
| CS(=O)(=O)Nc1ccc(-c2coc3cc(C#CC4CN(C(=O)CO)C4)ccc3c2=O)cc1 [N-(4-(7-((1-(2-hydroxyacetyl)azetidin-3-yl)ethynyl)-4-oxo-4H-chromen-3-yl)phenyl)methanesulfonamide] | > 130000 | 15 nM | > 130000 |
| CC(O)C(=O)N1CC(C#Cc2ccc3c(=O)c(-c4ccc(NS(C)(=O)=O)cc4)coc3c2)C1 (stereo not drawn) [N-(4-(7-((1-(2-hydroxypropanoyl)azetidin-3-yl)ethynyl)-4-oxo-4H-chromen-3-yl)phenyl)methanesulfonamide] | > 130000 | 15 nM | > 130000 |
| CS(=O)(=O)Nc1ccc(-c2coc3cc(C#CC4CN(C(=O)C5CC(F)(F)C5)C4)ccc3c2=O)cc1 [N-(4-(7-((1-(3,3-difluorocyclobutanecarbonyl)azetidin-3-yl)ethynyl)-4-oxo-4H-chromen-3-yl)phenyl)methanesulfonamide] | > 130000 | 6 nM | > 130000 |
| CN(C)CCC(=O)N1CC(C#Cc2ccc3c(=O)c(-c4ccc(NS(C)(=O)=O)cc4)coc3c2)C1 [N-(4-(7-((1-(3-(dimethylamino)propanoyl)azetidin-3-yl)ethynyl)-4-oxo-4H-chromen-3-yl)phenyl)methanesulfonamide] | > 130000 | 64 nM | 46900 |
| CC1(O)CC(C(=O)N2CC(C#Cc3ccc4c(=O)c(-c5ccc(NS(C)(=O)=O)cc5)coc4c3)C2)C1 (stereo not drawn) [N-(4-(7-((1-(3-hydroxy-3-methylcyclobutane-carbonyl)azetidin-3-yl)ethynyl)-4-oxo-4H-chromen-3-yl)phenyl)methanesulfonamide] | > 130000 | 5 nM | > 130000 |
| COCCC(=O)N1CC(C#Cc2ccc3c(=O)c(-c4ccc(NS(C)(=O)=O)cc4)coc3c2)C1 [N-(4-(7-((1-(3-methoxypropanoyl)azetidin-3-yl)ethynyl)-4-oxo-4H-chromen-3-yl)phenyl)methanesulfonamide] | > 130000 | 8 nM | > 130000 |
| CC1(C(=O)N2CC(C#Cc3ccc4c(=O)c(-c5ccc(NS(C)(=O)=O)cc5)coc4c3)C2)COC1 [N-(4-(7-((1-(3-methyloxetane-3-carbonyl)azetidin-3-yl)ethynyl)-4-oxo-4H-chromen-3-yl)phenyl)methanesulfonamide] | > 130000 | 6 nM | > 130000 |
| CS(=O)(=O)Nc1ccc(-c2coc3cc(C#CC4CN(C(=O)C5CCC5)C4)ccc3c2=O)cc1 [N-(4-(7-((1-(cyclobutanecarbonyl)azetidin-3-yl)ethynyl)-4-oxo-4H-chromen-3-yl)phenyl)methanesulfonamide] | > 130000 | 4 nM | > 130000 |
| CS(=O)(=O)Nc1ccc(-c2coc3cc(C#CC4CCN(C(=O)C5CC5)CC4)ccc3c2=O)cc1 [N-(4-(7-((1-(cyclopropanecarbonyl)piperidin-4-yl)ethynyl)-4-oxo-4H-chromen-3-yl)phenyl)methanesulfonamide] | > 130000 | 6.5 nM | > 130000 |
| CS(=O)(=O)Nc1ccc(-c2coc3cc(C#CC4(N)CCCCC4)ccc3c2=O)cc1 [N-(4-(7-((1-aminocyclohexyl)ethynyl)-4-oxo-4H-chromen-3-yl)phenyl)methanesulfonamide] | > 130000 | 528 nM | > 130000 |
| CS(=O)(=O)Nc1ccc(-c2coc3cc(C#CC4(O)CCCCC4)ccc3c2=O)cc1 [N-(4-(7-((1-hydroxycyclohexyl)ethynyl)-4-oxo-4H-chromen-3-yl)phenyl)methanesulfonamide] | > 130000 | 1710 nM | > 130000 |
| CS(=O)(=O)Nc1ccc(-c2coc3cc(C#CC4(O)CCCC4)ccc3c2=O)cc1 [N-(4-(7-((1-hydroxycyclopentyl)ethynyl)-4-oxo-4H-chromen-3-yl)phenyl)methanesulfonamide] | > 130000 | 386 nM and 156 nM | > 130000 |
| CC(C)CN1CC(C#Cc2ccc3c(=O)c(-c4ccc(NS(C)(=O)=O)cc4)coc3c2)C1 [N-(4-(7-((1-isobutylazetidin-3-yl)ethynyl)-4-oxo-4H-chromen-3-yl)phenyl)methanesulfonamide] | > 130000 | 109 nM | > 130000 |
| CC(C)n1cncc1C#Cc1ccc2c(=O)c(-c3ccc(NS(C)(=O)=O)cc3)coc2c1 [N-(4-(7-((1-isopropyl-1H-imidazol-5-yl)ethynyl)-4-oxo-4H-chromen-3-yl)phenyl)methanesulfonamide] | > 130000 | 7 nM | > 130000 |
| Cn1cnc(C#Cc2ccc3c(=O)c(-c4ccc(NS(C)(=O)=O)cc4)coc3c2)c1 [N-(4-(7-((1-methyl-1H-imidazol-4-yl)ethynyl)-4-oxo-4H-chromen-3-yl)phenyl)methanesulfonamide] | > 130000 | 95 nM | > 86500 |
| Cn1cncc1C#Cc1ccc2c(=O)c(-c3ccc(NS(C)(=O)=O)cc3)coc2c1 [N-(4-(7-((1-methyl-1H-imidazol-5-yl)ethynyl)-4-oxo-4H-chromen-3-yl)phenyl)methanesulfonamide] | 365 | < 4.9 nM | > 130000 |
| CS(=O)(=O)Nc1ccc(-c2coc3cc(C#CC4CNC4)ccc3c2=O)cc1 [N-(4-(7-(azetidin-3-ylethynyl)-4-oxo-4H-chromen-3-yl)phenyl)methanesulfonamide] | > 94400 | 266 nM | > 130000 |
| CS(=O)(=O)Nc1ccc(-c2coc3cc(C#CC4CC4)ccc3c2=O)cc1 [N-(4-(7-(cyclopropylethynyl)-4-oxo-4H-chromen-3-yl)phenyl)methanesulfonamide] | > 13000 | 57.7 nM | > 13000 |
| CS(=O)(=O)Nc1ccc(-c2coc3cc(C#CC4CN(C(=O)OC5CCCC5)C4)ccc3c2=O)cc1 [cyclopentyl-3-((3-(4-(methylsulfonamido)phenyl)-4-oxo-4H-chromen-7-yl)ethynyl)azetidine-1-carboxylate] | > 130000 | 9 nM | > 130000 |
| CC(C)(C)OC(=O)NC1(C(=O)N2CC(C#Cc3ccc4c(=O)c(-c5ccc(NS(C)(=O)=O)cc5)coc4c3)C2)CCC1 [tert-butyl 1-(3-((3-(4-(methylsulfonamido)-phenyl)-4-oxo-4H-chromen-7-yl)ethynyl)azetidine-1-carbonyl)-cyclobutylcarbamate] | > 130000 | 6 nM | > 130000 |
| CC(C)(C)OC(=O)NC1(C(=O)N2CC(C#Cc3ccc4c(=O)c(-c5ccc(NS(C)(=O)=O)cc5)coc4c3)C2)CC1 [tert-butyl 1-(3-((3-(4-(methylsulfonamido)phenyl)-4-oxo-4H-chromen-7-yl)ethynyl)azetidine-1-carbonyl)cyclopropylcarbamate] | > 130000 | 5 nM | 110000 |
